Earlier results in US20210386111A1, “AEROSOLISABLE FORMULATION” (NICOVENTURES TRADING LIMITED, priority 2018, published 2021).

2-hydroxy-propyl-β-cyclodextrin
solubility in water compared to base cyclodextrins such as β-cyclodextrin: increased solubility in water
